How the values were obtained:
human H1 receptor = target: T1, human H1 receptor (Homo sapiens, UniProt P35367); experiment: Histamine H1 functional antagonist assay: determination of functional pKi values (FLIPR); assay type: cell-based; conditions: CHO cells expressing human H1 receptor, histamine at EC80, read-out: average pKi (pKb) at H1 (converted)
T1 construct: expressed in transfected cells
Experimental: The human H1 receptor is cloned using known procedures described in the literature [Biochem. Biophys. Res. Commun., 201(2):894 (1994)]. Chinese hamster ovary (CHO) cells stably expressing the human H1 receptor are generated according to known procedures described in the literature [Br. J. Pharmacol., 117(6):1071 (1996)]. The histamine H1 cell line is seeded into non-coated black-walled clear bottom 384-well tissue culture plates in alpha minimum essential medium (Gibco/Invitrogen, cat no. 22561-021), supplemented with 10′)/0 dialysed foetal calf serum (Gibco/Invitrogen cat no. 12480-021) and 2 mM L-glutamine (Gibco/Invitrogen cat no 25030-024) and is maintained overnight at 5% CO2, 37° C. Excess medium is removed from each well to leave 10 μl. 30 μl loading dye (250 μM Brilliant Black, 2 μM Fluo-4 diluted in Tyrodes buffer+probenecid (145 mM NaCl, 2.5 mM KCl, 10 mM HEPES, 10 mM D-glucose, 1.2 mM MgCl2, 1.5 mM CaCl2, 2.5 mM probenecid, pH adjusted to 7.40 with NaOH 1.0 M)) is added to each well and the plates are incubated for 60 min at 5% CO2, 37° C. 10 μl of test compound, diluted to the required concentration in Tyrodes buffer+probenecid (or 10 μl Tyrodes buffer+probenecid as a control) is added to each well and the plate is incubated for 30 min at 37° C., 5% CO2. The plates are then placed into a FLIPR™(Molecular Devices, UK) to monitor cell fluorescence (λex=488 nm, λEM=540 nm) in the manner described in Sullivan et al., (In: Lambert DG (ed.), Calcium Signaling Protocols, New Jersey: Humana Press, 1999, 125-136) before and after the addition of 10 μl histamine at a concentration that results in the final assay concentration of histamine being EC80. Functional antagonism is indicated by a suppression of histamine induced increase in fluorescence, as measured by the FLIPR™ system (Molecular Devices). By means of concentration effect curves, functional affinities are determined using standard pharmacological mathematical analysis.

histamine H3 receptor = target: T2, histamine H3 receptor (Homo sapiens, UniProt Q9Y5N1); experiment: Histamine H3 functional antagonist assay (GTPγS, membranes); assay type: biochemical; conditions: CHO K1 membranes, [35S]-GTPγS, histamine at EC80; read-out: average pKi (pKb) at H3 (converted)
T2 construct: expressed in transfected cells; host or cells: CHO K1 cells with pSwitch/pGeneH3 (GeneSwitch, mifepristone-induced), clone 3H3; membrane preparation
Experimental: The histamine H3 cDNA is isolated from its holding vector, pcDNA3.1 TOPO (InVitrogen), by restriction digestion of plasmid DNA with the enzymes BamH1 and Not-1 and is ligated into the inducible expression vector pGene (InVitrogen) digested with the same enzymes. The GeneSwitchTM system (a system where in transgene expression is switched off in the absence of an inducer and switched on in the presence of an inducer) is performed as described in U.S. Pat. Nos. 5,364,791; 5,874,534; and 5,935,934. Ligated DNA is transformed into competent DH5α E. coli host bacterial cells and is plated onto Luria Broth (LB) agar containing ZeocinTM (an antibiotic which allows the selection of cells expressing the sh ble gene which is present on pGene and pSwitch) at 50 μgml^-1. Colonies containing the re-ligated plasmid are identified by restriction analysis. DNA for transfection into mammalian cells is prepared from 250 ml cultures of the host bacterium containing the […]3 plasmid and is isolated using a DNA preparation kit (Qiagen Midi-Prep) as per manufacturers guidelines (Qiagen). CHO K1 cells previously transfected with the pSwitch regulatory plasmid (InVitrogen) are seeded at 2×10^6 cells per T75 flask in Complete Medium, containing Hams F12 (GIBCOBRL, Life Technologies) medium supplemented with 10% v/v dialysed foetal bovine serum, L-glutamine, and hygromycin (100 μgml^-1), 24 h prior to use. Plasmid DNA is transfected into the cells using Lipofectamine plus according to the manufacturer's guidelines (InVitrogen). 48 h post transfection, cells are placed into complete medium supplemented with 500 μgml^-1 ZeocinTM. 10-14 days post selection, 10 nM Mifepristone (InVitrogen) is added to the culture medium to induce the expression of the receptor. 18 h post induction, cells are detached from the flask using ethylenediamine tetra-acetic acid (EDTA; 1:5000; InVitrogen), following several washes with PBS, pH 7.4 and are resuspended in Sorting Medium containing Minimum Essential Medium (MEM), without phenol red, and are supplemented with Earles salts and 3% Foetal Clone II (Hyclone). Approximately 1×10^7 cells are examined for receptor expression by staining with a rabbit polyclonal antibody, 4a, raised against the N-terminal domain of the histamine H3 receptor, are incubated on ice for 60 min, followed by two washes in sorting medium. Receptor bound antibody is detected by incubation of the cells for 60 min on ice with a goat anti rabbit antibody, conjugated with Alexa 488 fluorescence marker (Molecular Probes). Following two further washes with Sorting Medium, cells are filtered through a 50 μm FilconTM (BD Biosciences) and then are analysed on a FACS Vantage SE Flow Cytometer fitted with an Automatic Cell Deposition Unit. Control cells are non-induced cells treated in an analogous manner. Positively stained cells are sorted as single cells into 96-well plates, containing Complete Medium containing 500 μgml^-1 ZeocinTM and are allowed to expand before reanalysis for receptor expression via antibody and ligand binding studies. One clone, 3H3, is selected for membrane preparation. All steps of the protocol are carried out at 4° C. and with pre-cooled reagents. The cell pellet is resuspended in 10 volumes of homogenisation buffer (50 mM N-2-hydroxyethylpiperazine-N'-2-ethanesulfonic acid (HEPES), 1 mM ethylenediamine tetra-acetic acid (EDTA), pH 7.4 with KOH, supplemented with 10^-6 M leupeptin (acetyl-leucyl-leucyl-arginal; Sigma L2884), 25 μgml^-1 bacitracin (Sigma B0125), 1 mM phenylmethylsulfonyl fluoride (PMSF) and 2×10^-6 M pepstain A (Sigma)). The cells are then homogenised by 2×15 sec bursts in a 1 L glass Waring blender, followed by centrifugation at 500 g for 20 min. The supernatant is then spun at 48,000 g for 30 min. The pellet is resuspended in homogenisation buffer (4× the volume of the original cell pellet) by vortexing for 5 sec, followed by homogenisation in a Dounce homogeniser (10-15 strokes). […]

T1 sequence (P35367 whole entry): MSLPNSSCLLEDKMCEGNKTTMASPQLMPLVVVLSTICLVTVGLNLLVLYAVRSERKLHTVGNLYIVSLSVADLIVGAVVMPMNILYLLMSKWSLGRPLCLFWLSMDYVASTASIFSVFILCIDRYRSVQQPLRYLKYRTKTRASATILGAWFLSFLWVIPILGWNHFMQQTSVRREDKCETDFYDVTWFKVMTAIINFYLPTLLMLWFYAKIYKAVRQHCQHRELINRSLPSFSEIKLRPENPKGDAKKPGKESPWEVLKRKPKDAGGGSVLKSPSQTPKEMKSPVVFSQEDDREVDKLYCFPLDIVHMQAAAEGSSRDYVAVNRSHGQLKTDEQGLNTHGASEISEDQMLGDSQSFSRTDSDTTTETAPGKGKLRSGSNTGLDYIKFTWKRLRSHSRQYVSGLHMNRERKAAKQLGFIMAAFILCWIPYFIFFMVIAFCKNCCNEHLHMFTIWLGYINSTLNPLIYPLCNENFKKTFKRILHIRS
T2 sequence (Q9Y5N1 whole entry, species assumed): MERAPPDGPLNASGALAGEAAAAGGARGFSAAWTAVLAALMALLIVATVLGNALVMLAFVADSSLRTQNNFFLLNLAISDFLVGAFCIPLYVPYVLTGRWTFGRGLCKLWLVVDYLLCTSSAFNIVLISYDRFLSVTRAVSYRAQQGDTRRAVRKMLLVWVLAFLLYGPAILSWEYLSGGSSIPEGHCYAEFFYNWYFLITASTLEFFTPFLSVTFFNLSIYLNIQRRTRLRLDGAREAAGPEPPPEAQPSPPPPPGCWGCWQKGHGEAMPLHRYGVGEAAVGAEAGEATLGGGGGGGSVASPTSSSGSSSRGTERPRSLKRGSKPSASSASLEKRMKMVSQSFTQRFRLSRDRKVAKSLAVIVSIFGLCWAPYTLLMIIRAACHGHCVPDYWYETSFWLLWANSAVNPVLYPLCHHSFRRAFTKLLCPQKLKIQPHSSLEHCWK

Row | Compound | Ki (human H1 receptor) | Ki (histamine H3 receptor)
1 | CCCCc1cc(OC2CCN(CCCC(=O)NCCOC)CC2)c2ncccc2c1 [Example 23, 4-{4-[(6-butyl-8-quinolinyl)oxy]-1-piperidinyl}-N-[2-(methyloxy)ethyl] butanamide] | < 10 nM | > 3160 nM
2 | CCCCc1cc(OC2CCN(CCCC(=O)N3CCCCC3)CC2)c2ncccc2c1 [Example 24, 6-butyl-8-({1-[4-oxo-4-(1-piperidinyl)butyl]-4-piperidinyl}oxy)quinoline] | < 100 nM | > 3160 nM
3 | CCCCc1cc(OC2CCN(CCCC(=O)NC(C)C)CC2)c2ncccc2c1 [Example 25, 4-{4-[(6-butyl-8-quinolinyl)oxy]-1-piperidinyl}-N-(1-methylethyl)butanamide] | < 10 nM | > 3160 nM
4 | CCCCc1cc(OC2CCN(CCCCC(=O)NCCCOC)CC2)c2ncccc2c1 [Example 26, 5-{4-[(6-butyl-8-quinolinyl)oxy]-1-piperidinyl}-N-[3-(methyloxy)propyl]pent-anamide] | < 100 nM | > 3160 nM
5 | CCCCc1cc(OC2CCN(CCCCC(=O)N(CC)CC)CC2)c2ncccc2c1 [Example 27, 5-{4-[(6-butyl-8-quinolinyl)oxy]-1-piperidinyl}-N,N-diethylpentanamide] | < 10 nM | > 3160 nM
6 | CCCCc1cc(OC2CCN(CCCCC(=O)NCCC)CC2)c2ncccc2c1 [Example 28, 5-{4-[(6-butyl-8-quinolinyl)oxy]-1-piperidinyl}-N-propylpentanamide] | < 10 nM | > 3160 nM
7 | CCCCc1cc(OC2CCN(CCCCC(=O)NCCOC)CC2)c2ncccc2c1 [Example 29, 5-{4-[(6-butyl-8-quinolinyl)oxy]-1-piperidinyl}-N-[2-(methyloxy)ethyl] pentanamide] | < 100 nM | > 3160 nM
8 | CCCCc1cc(OC2CCN(CCCCC(=O)NC(C)(C)C)CC2)c2ncccc2c1 [Example 30, 5-{4-[(6-butyl-8-quinolinyl)oxy]-1-piperidinyl}-N-(1,1-dimethylethyl) pentanamide] | < 100 nM | > 3160 nM
9 | CCCCc1cc(OC2CCN(CCCCC(=O)N3CCCCC3)CC2)c2ncccc2c1 [Example 31, 6-butyl-8-({1-[5-oxo-5-(1-piperidinyl)pentyl]-4-piperidinyl}oxy) quinoline] | < 10 nM | > 3160 nM
10 | CCCCc1cc(O[C@@H]2CCN(CCC(=O)N3CCCCC3)C2)c2ncccc2c1 [Example 33, 6-butyl-8-({(3R)-1-[3-oxo-3-(1-piperidinyl)propyl]-3-pyrrolidinyl}oxy)quinoline] | < 10 nM | > 316 nM
11 | CCCCc1cc(O[C@@H]2CCN(CCCC(=O)N3CCCCC3)C2)c2ncccc2c1 [Example 34, 6-butyl-8-({(3R)-1-[4-oxo-4-(1-piperidinyl)butyl]-3-pyrrolidinyl}oxy)quinoline] | < 10 nM | > 316 nM
12 | CCCCc1cc(O[C@@H]2CCN(CCC(=O)N(CC)CC)C2)c2ncccc2c1 [Example 35, 3-{(3R)-3-[(6-butyl-8-quinolinyl)oxy]-1-pyrrolidinyl}-N,N-diethylpropanamide] | < 10 nM | > 316 nM
13 | CCCCc1cc(O[C@@H]2CCN(CCC(=O)NC(C)(C)C)C2)c2ncccc2c1 [Example 36, 3-{(3R)-3-[(6-butyl-8-quinolinyl)oxy]-1-pyrrolidinyl}-N-(1,1-dimethylethyl) propanamide] | < 10 nM | > 316 nM
14 | CCCCc1cc(O[C@@H]2CCN(CCCC(=O)NC(C)(C)C)C2)c2ncccc2c1 [Example 37, 4-{(3R)-3-[(6-butyl-8-quinolinyl)oxy]-1-pyrrolidinyl}-N-(1,1-dimethylethyl) butanamide] | < 10 nM | > 316 nM
15 | CCCCc1cc(O[C@H]2CCN(CCCC(=O)N3CCCCC3)C2)c2ncccc2c1 [Example 39, 6-butyl-8-({(3S)-1-[4-oxo-4-(1-piperidinyl)butyl]-3-pyrrolidinyl}oxy)quinoline] | < 10 nM | > 316 nM
16 | CCCCc1cc(OC2CCN(C[C@H]3CC[C@H](C(=O)NC(C)C)CC3)CC2)c2ncccc2c1 [Example 42, Trans-4-({4-[(6-butyl-8-quinolinyl)oxy]-1-piperidinyl}methyl)-N-(1-methylethyl)cyclohexanecarboxamide] | < 100 nM | > 316 nM
17 | CCCCc1cc(OC2CCN(C[C@H]3CC[C@H](C(=O)NCCC)CC3)CC2)c2ncccc2c1 [Example 45, Trans-4-({4-[(6-butyl-8-quinolinyl)oxy]-1-piperidinyl}methyl)-N-propylcyclohexane carboxamide] | < 10 nM | > 316 nM
18 | CCCCc1cc(OC2CCN(C[C@H]3CC[C@H](C(=O)NCC(C)(C)C)CC3)CC2)c2ncccc2c1 [Example 46, trans-4-({4-[(6-butyl-8-quinolinyl)oxy]-1-piperidinyl}methyl)-N-(2,2-dimethylpropyl) cyclohexane carboxamide] | < 100 nM | > 316 nM
19 | CCCCc1cc(OC2CCN(C[C@H]3CC[C@H](C(=O)NCCCOC)CC3)CC2)c2ncccc2c1 [Example 47, trans-4-({4-[(6-butyl-8-quinolinyl)oxy]-1-piperidinyl}methyl)-N-[3-(methyloxy)propyl]cyclohexane carboxamide] | < 10 nM | > 316 nM
20 | CCCCCCc1cc(OC2CCN(C[C@H]3CC[C@H](C(=O)Nc4ccc(C)cc4)CC3)CC2)c2ncccc2c1 [Example 48, trans-4-({4-[(6-hexyl-8-quinolinyl)oxy]-1-piperidinyl}methyl)-N-(4-methylphenyl) cyclohexane carboxamide] | < 100 nM | > 316 nM
21 | CCCCCCc1cc(OC2CCN(C[C@H]3CC[C@H](C(=O)NCc4ccc(C)cc4)CC3)CC2)c2ncccc2c1 [Example 49, trans-4-({4-[(6-hexyl-8-quinolinyl)oxy]-1-piperidinyl}methyl)-N-[(4-methylphenyl)methyl]cyclohexane carboxamide] | < 100 nM | > 316 nM

— patent US20100222349A1, “QUINOLINE DERIVATIVES USED TO TREAT INFLAMMATORY AND ALLERGIC DISEASES” (Glaxo Group Limited, priority 2007, published 2010)
